Laboratory results taken from patent US10195185B2, “3-(1H-imidazo[4,5-C]pyridin-2-yl)-1H-pyrazolo[4,3-B]pyridines and therapeutic uses thereof” (Samumed, LLC, priority 2015, dated 2019).

What was measured:
Assay type in all cases: cell-based
[1] = system: Wnt activity (Wnt-responsive human Sp5 promoter, TCF/LEF binding sites) in SW480 colon carcinoma cells; experiment: Wnt activity screening assay: Sp5-Luc luciferase reporter gene in SW480 cells; conditions: 10-point dose-response from 10 μM, incubated overnight
Source text: The screening assay for Wnt activity is described as follows. Reporter cell lines can be generated by stably transducing cancer cell lines (e.g., colon cancer) or primary cells (e.g., IEC-6 intestinal cells) with a lentiviral construct that includes a Wnt-responsive promoter driving expression of the firefly luciferase gene.
SW480 colon carcinoma cells were transduced with a lentiviral vector expressing luciferase with a human Sp5 promoter consisting of a sequence of eight TCF/LEF binding sites. SW480 cells stably expressing the Sp5-Luc reporter gene and a hygromycin resistance gene were selected by treatment with 150 μg/mL of hygromycin for 7 days. These stably transduced SW480 cells were expanded in cell culture and used for all further screening activities. Each compound was dissolved in DMSO as a 10 mM stock and used to prepare compound source plates. Serial dilution (1:3, 10-point dose-response curves starting from 10 μM) and compound transfer was performed using the ECHO 550 (Labcyte, Sunnyvale, Calif.) into 384-well white solid bottom assay plates (Greiner Bio-One) with appropriate DMSO backfill for a final DMSO concentration of 0.1%. For Sp5-Luc reporter gene assays, the cells were plated at 4,000 cells/well in 384-well plates with medium containing 1% fetal bovine serum and incubated overnight at 37° C. and 5% CO2. Following incubation, 20 μl of BrightGlo luminescence reagent (Promega) was added to each well of the 384-well assay plates. The plates were placed on an orbital shaker for 2 min and then luminescence was quantified using the Envision (Perkin Elmer) plate reader. Readings were normalized to DMSO only treated cells, and normalized activities were utilized for EC50 calculations using the dose-response log (inhibitor) vs. response-variable slope (four parameters) nonlinear regression feature available in GraphPad Prism 5.0 (or Dotmatics). For EC50 of >10 μM, the percent inhibition at 10 μM is provided.

[2] = system: SW480 colon cancer cells; experiment: Cell viability assay (CellTiter-Blue), four days; conditions: Homo sapiens, 96 h, CellTiter-Blue cell viability
Protocol: Representative compounds were screened using the following assay procedure to assess the effect on cell viability as described below.
Each compound was dissolved in DMSO as a 10 mM stock and used to prepare compound source plates. Serial dilution (1:3, 8-point dose-response curves from 10 μM to 0.0045 μM) and compound transfer was performed using the ECHO 550 (Labcyte, Sunnyvale, Calif.) into 96-well clear bottom, black-walled plates (Corning-Costar).
Approximately 2×10^3 SW480 colon cancer cells were seeded into each well and allowed to incubate in the presence or absence of compound for four days at 37° C./5% CO2. Eight replicates of DMSO-treated cells served as controls and cells treated with compound were performed in duplicate.
After incubation, 20 μL of CellTiter-Blue (Promega) was added to each well allowed to incubate for approximately 3 hours. This reagent was a buffered solution which contains resazurin, metabolically active cells were able to reduce rezarurin (blue) into resorufin (pink) which was highly fluorescent. This measured fluorescence was used as a readout for cell viability.
After incubation, the plates were read at Ex 560 nm Em 590 nm (Cytation 3, BioTek). Dose-response curves were generated and EC50 concentration values were calculated using non-linear regression curve fit in the GraphPad Prism (San Diego, Calif.) or Dotmatics' Studies Software (Bishops Stortford, UK). For EC50 of >10 μM, the percent inhibition at 10 μM is provided.

[3] = system: Primary human fibroblasts derived from IPF patients (LL29 cells) treated with TGF-β1; experiment: Inhibition of the fibrotic process: αSMA staining in TGF-β1 treated fibroblasts; conditions: Fibroblast, 96 h, LL29 fibroblasts treated with TGF-β1, 4 days
Source text: Representative compounds were screened using primary human fibroblasts (derived from IPF patients) treated with TGF-β1 to determine their ability to inhibit the fibrotic process.
Primary human fibroblasts derived from IPF patients (LL29 cells) [^1Xiaoqiu Liu, et. al., “Fibrotic Lung Fibroblasts Show Blunted Inhibition by cAMP Due to Deficient cAMP Response Element-Binding Protein Phosphorylation”, Journal of Pharmacology and Experimental Therapeutics (2005), 315(2), 678-687; ^2Watts, K. L., et. al., “RhoA signaling modulates cyclin D1 expression in human lung fibroblasts; implications for idiopathic pulmonary fibrosis”, Respiratory Research (2006), 7(1), 88] were obtained from American Type Culture Collection (ATCC) and expanded in F12 medium supplemented with 15% Fetal Bovine Serum and Penicillin/Streptomycin.
Each compound was dissolved in DMSO as a 10 mM stock and used to prepare compound source plates. Serial dilution (1:2, 11-point dose-response curves from 10 μM to 1.87 nM) and compound transfer was performed using the ECHO 550 (Labcyte, Sunnyvale, Calif.) into 384-well clear bottom assay plates (Greiner Bio-One) with appropriate DMSO backfill for a final DMSO concentration of 0.1%. LL29 cells are plated at 1,500 cells/well in 80 μL/well F12 medium supplemented with 1% Fetal Bovine Serum. One hour after addition of the cells, TGF-β1 (Peprotech; 20 ng/mL) was added to the plates to induce fibrosis (ref. 1 and 2 above). Wells treated with TGF-β1 and containing DMSO were used as controls. Cells were incubated at 37° C. and 5% CO2 for 4 days. Following incubation for 4 days, SYTOX green nucleic acid stain (Life Technologies [Thermo Fisher Scientific]) was added to the wells at a final concentration of 1 μM and incubated at room temperature for 30 min. Cells were then fixed using 4% formaldehyde (Electron Microscopy Sciences), washed 3 times with PBS followed by blocking and permeabilization using 3% Bovine Serum Albumin (BSA; Sigma) and 0.3% Triton X-100 (Sigma) in PBS. Cells were then stained with antibody specific to α-smooth muscle actin (αSMA; Abcam) (ref. 1 and 2 above) in 3% Bovine Serum Albumin (BSA; Sigma) and 0.3% Triton X-100 (Sigma) in PBS, and incubated overnight at 4° C. Cells were then washed 3 times with PBS, followed by incubation with Alexa Flor-647 conjugated secondary antibody (Life Technologies [Thermo Fisher Scientific]) and DAPI at room temperature for 1 hour. Cells were then washed 3 times with PBS and plates were sealed for imaging. αSMA staining was imaged by excitation at 630 nm and emission at 665 nm and quantified using the Compartmental Analysis program on the CellInsight CX5 (Thermo Scientific). Dead or apoptotic cells were excluded from analysis based on positive SYTOX green staining. % of total cells positive for αSMA were counted in each well and normalized to the average of 11 wells treated with TGF-β1 on the same plate using Dotmatics' Studies Software. The normalized averages (fold change over untreated) of 3 replicate wells for each compound concentration were used to create dose-responses curves and EC50 values were calculated using non-linear regression curve fit in the Dotmatics' Studies Software. For EC50 of >10 μM, the percent inhibition at 10 μM is provided.

[4] = system: IL-6 in human monocyte cell line (THP-1 cells); experiment: IL-6 inhibition in LPS-stimulated THP-1 cells (HTRF); conditions: IL-6 in LPS-stimulated THP-1 cells, HTRF
Protocol: Human monocyte cell line (THP-1 cells; Catalog # TIB-202, ATCC, Manassas, Va.) were cultured in Roswell Park Memorial Institute (RPMI) 1640 Medium (Catalog #21870-100, Buffalo, N.Y.) with 1% L-glutamine, 1% HEPES, 1% Sodium Pyruvate, 2% Sodium Bicarbonate supplemented with 100 units/mL penicillin, 50 μg/mL streptomycin, 2-mercaptoethanol (0.05 mM) [basal medium] and 10% fetal bovine serum (Catalog #16140089, Life Technologies, Carlsbad, Calif.) at 37° C. and 5% CO2.
THP-1 cells were cultured in basal media with 1% FBS for 24 hours before the start of the assay. Each compound was dissolved in DMSO as a 10 mM stock and used to prepare compound source plates. Serial dilution (1:3, 10-point dose-response curves starting from 10 μM) and compound transfer was performed using the ECHO 550 (Labcyte, Sunnyvale, Calif.) into 384-well white low volume assay plates (Greiner Bio-One) with appropriate DMSO backfill for a final DMSO concentration of 0.1%. THP-1 cells were plated at 5000 cells/well in the 384-well plates and incubated at 37° C. for 2 h. 500 ng/mL of LPS was added after 2 hours and cells were incubated for another 22 hours at 37° C. Plates were spun in a centrifuge for 1 minute at […] and a mixture of anti-IL6 XL665, and anti-IL6 Cryptate diluted in reconstitution buffer (Cisbio Inc.) was added to each well. Following incubation for 3 hrs at room temperature, Homogeneous Time-Resolved Fluorescence (HTRF) was measured using the Envision (Perkin Elmer) at 665 nm and […]. The ratio of fluorescence at 665 nm to 620 nm was used as a readout for IL6 quantification. All samples were processed in duplicate. Readings were normalized to DMSO treated cells and normalized activities were utilized for EC50 calculations using the dose-response log (inhibitor) vs. response-variable slope (four parameters) nonlinear regression feature available in GraphPad Prism 5.0 (or Dotmatics). For EC50 of >10 μM, the percent inhibition at 10 μM is provided.

EC50 [1] [nM] | EC50 [2] [µM] | EC50 [4] [nM] | Compound | EC50 [3] [µM]
2200 | 9.37 | 3980 | Oc1cncc(-c2ccc3[nH]nc(-c4nc5c(N6CCCCC6)nccc5[nH]4)c3n2)c1 [Compound 613, 5-(3-(4-(Piperidin-1-yl)-1H-imidazo[4,5-c]pyridin-2-yl)-1H-pyrazolo[4,3-b]pyridin-5-yl)pyridin-3-ol] | 9.46
6780 | 2.58 | 123 | c1ccc(CNCc2cncc(-c3ccc4[nH]nc(-c5nc6c(-c7cccnc7)nccc6[nH]5)c4n3)c2)cc1 [Compound 108, N-Benzyl-1-(5-(3-(4-(pyridin-3-yl)-1H-imidazo[4,5-c]pyridin-2-yl)-1H-pyrazolo [4,3-b]pyridin-5-yl)pyridin-3-yl)methanamine] | 9.06
1320 | 5.71 | 1900 | c1ccc(-c2ccc3[nH]nc(-c4nc5cnccc5[nH]4)c3n2)nc1 [Compound 280, 3-(1H-Imidazo[4,5-c]pyridin-2-yl)-5-(pyridin-2-yl)-1H-pyrazolo[4,3-b]pyridine] | 7.23
